This is an account of results in paper PMC8330740, “Discovery of new 3-methylquinoxalines as potential anti-cancer agents and apoptosis inducers targeting VEGFR-2: design, synthesis, and in silico studies” (Journal of Enzyme Inhibition and Medicinal Chemistry, 2021).

Usually IC50 stands for the concentration that inhibits the measured activity by half.

The target of one data set is Human VEGFR-2 (Homo sapiens, UniProt P35968). Nature of the data set: In vitro VEGFR-2 kinase assay (Human VEGFR-2 ELISA kit).
Sequence of Human VEGFR-2 (P35968 20-1356): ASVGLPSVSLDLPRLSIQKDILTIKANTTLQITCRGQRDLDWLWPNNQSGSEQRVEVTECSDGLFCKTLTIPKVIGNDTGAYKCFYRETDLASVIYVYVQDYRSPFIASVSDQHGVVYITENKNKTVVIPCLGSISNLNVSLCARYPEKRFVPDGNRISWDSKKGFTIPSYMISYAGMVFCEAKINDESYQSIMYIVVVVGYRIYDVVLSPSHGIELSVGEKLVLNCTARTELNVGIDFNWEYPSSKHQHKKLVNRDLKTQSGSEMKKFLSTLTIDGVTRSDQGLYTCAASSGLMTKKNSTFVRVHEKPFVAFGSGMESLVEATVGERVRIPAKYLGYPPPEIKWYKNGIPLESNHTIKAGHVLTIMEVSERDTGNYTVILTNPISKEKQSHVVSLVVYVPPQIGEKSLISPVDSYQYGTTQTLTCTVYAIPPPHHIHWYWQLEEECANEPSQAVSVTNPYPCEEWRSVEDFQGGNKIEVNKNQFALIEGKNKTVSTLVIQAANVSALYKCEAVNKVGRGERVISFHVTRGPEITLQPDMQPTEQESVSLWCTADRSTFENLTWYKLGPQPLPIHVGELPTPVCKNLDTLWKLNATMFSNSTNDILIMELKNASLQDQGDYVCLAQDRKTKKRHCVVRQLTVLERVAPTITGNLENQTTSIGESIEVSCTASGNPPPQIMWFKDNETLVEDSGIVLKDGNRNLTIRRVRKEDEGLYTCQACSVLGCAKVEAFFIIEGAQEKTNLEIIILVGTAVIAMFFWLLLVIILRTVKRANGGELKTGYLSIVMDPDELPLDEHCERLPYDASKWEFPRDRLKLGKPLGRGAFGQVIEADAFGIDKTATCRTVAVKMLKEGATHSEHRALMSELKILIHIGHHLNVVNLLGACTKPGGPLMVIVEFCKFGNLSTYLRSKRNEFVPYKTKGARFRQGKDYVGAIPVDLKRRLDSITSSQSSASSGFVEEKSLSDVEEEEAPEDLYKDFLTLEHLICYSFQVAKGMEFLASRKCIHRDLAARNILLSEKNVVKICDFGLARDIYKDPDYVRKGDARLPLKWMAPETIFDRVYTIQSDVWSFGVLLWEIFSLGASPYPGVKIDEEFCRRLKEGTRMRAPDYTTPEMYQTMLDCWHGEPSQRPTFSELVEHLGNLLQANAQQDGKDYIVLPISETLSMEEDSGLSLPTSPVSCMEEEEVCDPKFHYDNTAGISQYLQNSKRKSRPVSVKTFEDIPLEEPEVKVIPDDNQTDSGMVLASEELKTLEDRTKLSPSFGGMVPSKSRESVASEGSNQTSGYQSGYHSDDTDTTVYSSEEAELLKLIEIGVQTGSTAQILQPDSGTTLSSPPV
The test system of data set [1] is MCF-7 (human breast cancer cell line). In words: MTT cytotoxicity assay, MCF-7. The format is cell-based. The settings on record: for IC50: Homo sapiens, MCF7, MTT assay, mean of at least three different experiments; for Cytotoxic activity against the two cell lines (in words): MCF-7 and HepG2 together. How it is done: (§1) In vitro cytotoxicity was carried out using MTT assay protocol[47]^,[65–67] as described in Supplementary data.
A general note: Formazan colour is commonly taken as a measure of viable cells.

The subject of data set [2] is HepG2 (human liver carcinoma cell line). In words: MTT cytotoxicity assay, HepG2. The settings on record: mean of at least three different experiments. The class given is cell-based. The method, then:
as §1

The subject of a further data set is primary rat hepatocytes. Nature of the data set: In vitro cytotoxicity against normal cells. The settings on record: Hepatocyte, read-out: IC50 primary rat hepatocytes.

Take `Cc1nc2ccccc2nc1SCC(=O)Nc1ccc(C(=O)Nc2ccc(F)cc2)cc1` [Compound 12h, N-(4-Fluorophenyl)-4–(2-((3-methylquinoxalin-2-yl)thio)acetamido)benzamide]: the results for the IC50 (on Human VEGFR-2; in data set [1]; in data set [2]) were 0.0514 µM, 67.8 µM and 35.8 µM, respectively.

As for `Cc1nc2ccccc2n(CC(=O)Nc2ccc(C(=O)Nc3ccc(F)cc3)cc2)c1=O` [Compound 11h, N-(4-Fluorophenyl)-4–(2-(3-methyl-2-oxoquinoxalin-1(2H)-yl)acetamido)benzamide], the IC50 against Human VEGFR-2 worked out at 0.0116 µM; in data set [1], 25.8 µM; in data set [2], 22.7 µM. Further, the “Cytotoxic activity against the two cell lines (in words)” value (“Cytotoxic activity” below) in data set [1] was “weak cytotoxic activity”.

For `COc1ccc(NC(=O)c2ccc(NC(=O)CSc3nc4ccccc4nc3C)cc2)cc1` [Compound 12f, N-(4-Methoxyphenyl)-4–(2-((3-methylquinoxalin-2-yl)thio)acetamido) benzamide], the IC50 against Human VEGFR-2 turned out to be 0.0038 µM; in data set [1], 10.8 µM; in data set [2], 7.5 µM.

Regarding `CCC(C)NC(=O)c1ccc(NC(=O)CSc2nc3ccccc3nc2C)cc1` (stereo not shown) [Compound 12b, N-(sec-Butyl)-4–(2-((3-methylquinoxalin-2-yl)thio)acetamido)benzamide], the IC50 at Human VEGFR-2 was determined as 0.0157 µM; in data set [1], 35.7 µM; in data set [2], 21.7 µM. Further, the “Cytotoxic activity” value in data set [1] is on record as “weak cytotoxic activity”.

As to `CC(=O)c1ccc(NC(=O)c2ccc(NC(=O)Cn3c(=O)c(C)nc4ccccc43)cc2)cc1` [Compound 11g, N-(4-Acetylphenyl)-4–(2-(3-methyl-2-oxoquinoxalin-1(2H)-yl)acetamido)benzamide], the IC50 against Human VEGFR-2 is 0.0034 µM; in data set [1] it was 6.7 µM; in data set [2] it was 3.8 µM.

With `Cc1nc2ccccc2nc1SCC(=O)Nc1ccc(C(=O)NC2CCCC2)cc1` [Compound 12c, N-Cyclopentyl-4–(2-((3-methylquinoxalin-2-yl)thio)acetamido)benzamide], the IC50 is 0.0198 µM at Human VEGFR-2, 31.3 µM in data set [1] and 18.7 µM in data set [2].

Consider `Cc1cccc(NC(=O)c2ccc(NC(=O)CSc3nc4ccccc4nc3C)cc2)c1` [Compound 12j, 4–(2-((3-Methylquinoxalin-2-yl)thio)acetamido)-N-(m-tolyl)benzamide], for which the IC50 stood at 0.0378 µM against Human VEGFR-2, 61.2 µM in data set [1] and 40.7 µM in data set [2].

For `CNC(=O)c1cc(Oc2ccc(NC(=O)Nc3ccc(Cl)c(C(F)(F)F)c3)cc2)ccn1` [Sorafenib, reference compound], the IC50 stood at 13.4 µM with primary rat hepatocytes, 3.4 µM in data set [1] and 2.2 µM in data set [2].

As to `CCC(C)NC(=O)c1ccc(NC(=O)Cn2c(=O)c(C)nc3ccccc32)cc1` (stereo not shown) [Compound 11b, N-(sec-Butyl)-4–(2-(3-methyl-2-oxoquinoxalin-1(2H)-yl)acetamido)benzamide], the IC50 on Human VEGFR-2 was determined as 0.0053 µM; in data set [1], 21.2 µM; in data set [2], 12.8 µM.

`CNC(=O)c1ccc(NC(=O)CSc2nc3ccccc3nc2C)cc1` [Compound 12a, N-Methyl-4–(2-((3-methylquinoxalin-2-yl)thio)acetamido)benzamide]: the IC50 against Human VEGFR-2 came to 0.0327 µM; in data set [1], 69.2 µM; in data set [2], 23.7 µM. In data set [1], the “Cytotoxic activity” value was “weak cytotoxic activity”.

In the case of `CC(=O)c1ccc(NC(=O)c2ccc(NC(=O)CSc3nc4ccccc4nc3C)cc2)cc1` [Compound 12g, N-(4-Acetylphenyl)-4–(2-((3-methylquinoxalin-2-yl)thio)acetamido)benzamide], the IC50 against Human VEGFR-2 turned out to be 0.0054 µM; in data set [1] it was 8.7 µM; in data set [2] it was 6.1 µM.

Regarding `Cc1nc2ccccc2n(CC(=O)Nc2ccc(C(=O)Nc3ccccn3)cc2)c1=O` [Compound 11i, 4–(2-(3-Methyl-2-oxoquinoxalin-1(2H)-yl)acetamido)-N-(pyridin-2-yl)benzamide], the values for the IC50 (at Human VEGFR-2; in data set [1]; in data set [2]) were 0.0527 µM, 69.7 µM and 51.8 µM, respectively. In data set [1], the “Cytotoxic activity” value is recorded as “weak cytotoxic activity”.

Regarding `COc1ccccc1NC(=O)c1ccc(NC(=O)CSc2nc3ccccc3nc2C)cc1` [Compound 12d, N-(2-Methoxyphenyl)-4–(2-((3-methylquinoxalin-2-yl)thio)acetamido) benzamide], the IC50 is 0.0134 µM against Human VEGFR-2, 23.5 µM in data set [1] and 17.6 µM in data set [2].

For the compound `COc1ccc(NC(=O)c2ccc(NC(=O)Cn3c(=O)c(C)nc4ccccc43)cc2)cc1` [Compound 11f, N-(4-Methoxyphenyl)-4–(2-(3-methyl-2-oxoquinoxalin-1(2H)-yl)acetamido)benzamide], the IC50 was 0.0048 µM on Human VEGFR-2, 12.4 µM in data set [1] and 9.6 µM in data set [2].

On to `CNC(=O)c1ccc(NC(=O)Cn2c(=O)c(C)nc3ccccc32)cc1` [Compound 11a, N-Methyl-4–(2-(3-methyl-2-oxoquinoxalin-1(2H)-yl)acetamido)benzamide], for which the IC50 at Human VEGFR-2 was found to be 0.0112 µM; in data set [1], 23.9 µM; in data set [2], 16.5 µM.

With `Cc1ccc(NC(=O)c2ccc(NC(=O)CSc3nc4ccccc4nc3C)cc2)cc1` [Compound 12k, 4–(2-((3-Methylquinoxalin-2-yl)thio)acetamido)-N-(p-tolyl)benzamide], the IC50 turned out to be 0.0029 µM against Human VEGFR-2, 9.8 µM in data set [1] and 6.7 µM in data set [2].

For the compound `COc1ccccc1NC(=O)c1ccc(NC(=O)Cn2c(=O)c(C)nc3ccccc32)cc1` [Compound 11d, N-(2-Methoxyphenyl)-4–(2-(3-methyl-2-oxoquinoxalin-1(2H)-yl)acetamido)benzamide], the results for the IC50 (against Human VEGFR-2; in data set [1]; in data set [2]) were 0.0374 µM, 52.3 µM and 34.1 µM, respectively. In data set [1], the “Cytotoxic activity” value was “weak cytotoxic activity”.

In the case of `COc1cccc(NC(=O)c2ccc(NC(=O)CSc3nc4ccccc4nc3C)cc2)c1` [Compound 12e, N-(3-Methoxyphenyl)-4–(2-((3-methylquinoxalin-2-yl)thio)acetamido) benzamide], the IC50 against Human VEGFR-2 amounted to 0.0038 µM; in the data set with primary rat hepatocytes, 16.7 µM; in data set [1], 5.3 µM; in data set [2], 4.8 µM.

With `Cc1nc2ccccc2nc1SCC(=O)Nc1ccc(C(=O)Nc2ccccn2)cc1` [Compound 12i, 4–(2-((3-Methylquinoxalin-2-yl)thio)acetamido)-N-(pyridin-2-yl)benzamide], the values for the IC50 (against Human VEGFR-2; in data set [1]; in data set [2]) were 0.0241 µM, 58.6 µM and 44.7 µM, respectively.

In the case of `Cc1nc2ccccc2n(CC(=O)Nc2ccc(C(=O)Nc3nccs3)cc2)c1=O` [Compound 11j, 4–(2-(3-Methyl-2-oxoquinoxalin-1(2H)-yl)acetamido)-N-(thiazol-2-yl)benzamide], the IC50 on Human VEGFR-2 turned out to be 0.0134 µM; in data set [1], 32.8 µM; in data set [2], 27.8 µM. Moreover, the “Cytotoxic activity” value in data set [1] is given as “weak cytotoxic activity”.

Turning to `Cc1nc2ccccc2n(CC(=O)Nc2ccc(C(=O)NC3CCCC3)cc2)c1=O` [Compound 11c, N-Cyclopentyl-4–(2-(3-methyl-2-oxoquinoxalin-1(2H)-yl)acetamido)benzamide], the IC50 at Human VEGFR-2 was found to be 0.0127 µM; in data set [1], 28.1 µM; in data set [2] it was 18.7 µM.
